Assay: Pulp bleaching, delignification measured as Kappa number (TAPPI T236 cm-85)
Conditions: for Kappa No.: 2 g pulp, starting Kappa 31
Procedure: Delignification of the pulp was measured as the change in Kappa number according to the TAPPI method T236 cm-85. A typical procedure is as follows. A known mass of paper pulp (containing lignin) is reacted with an excess of potassium permanganate in an acid solution for a specified period of time to oxidize the lignin. After the reaction, the residual permanganate is determined by titration. The Kappa number is defined as the volume (ml) of 0.1N potassium permanganate consumed by 1 g of moisture-free pulp in 0.5N sulfuric acid after a ten-minute reaction time at 25° C. under conditions such that one-half of the permanganate remains unreacted. A linear relationship with the lignin content of the pulp and the measurement of the Kappa number has already been done on samples as low as 300 mg of pulp.
A softwood Kraft pulp, Kappa number 31.0, was treated with a laccase (NS51003) under the following conditions:
The dried pulp was added to 80 ml of 50 mM phosphate, pH 5.5, and disintegrated in a blender. The pulp was then transferred to a 500 ml conical flask and the blender was washed with 20 ml of the same buffer. The washed buffer and the pulp were combined. The mediator was added at 1-4% (w/w, based on the dry pulp), followed by the addition of the laccase. The pH of the pulp mixture was adjusted to 5.5 if needed. The flask was covered with an aluminum foil with holes punched through and incubated at 50° C. for 16 hrs on a rotary shaker at 200 rpm.
After the enzymatic treatment, the pulp mixture was filtered through a Buchner funnel, and the pulp was washed with water. The pulp from the control experiment was treated at the same pH and temperature as described above.
The washed pulp was then treated with an alkaline solution under the following conditions:
The filtered pulp was repulped in the alkaline solution and incubated at 70° C. for 3 hrs. The pH of the pulp mixture should be between 11.7-12.00 during the entire treatment. After the treatment, the pulp mixture was filtered through a Buchner funnel, and the pulp was washed with water extensively and then dried in a hood overnight.
The delignification of the pulp was measured as a change in Kappa Number according to TAPPI method T236 cm-85.
In this example, we used the typical pulp bleaching experiment as described above. We also used laccase as the enzyme, hardwood black liquor (HWBL) as the mediator, and two chain transfer agents (anthracene and CBr4).

[1] = laccase 100 ul plus HWBL 200 ul as mediator plus chain transfer agent 20 mg

Structure (SMILES) | Kappa number reduction (in words) (0.1 ml of the 51003 laccase with the mediator) | Kappa No. (laccase 100 ul plus mediator (HBT 20 mg or HWBL 200 ul), no chain transfer agent) | Kappa No. [1]
On1nnc2ccccc21 [HBT, 1-hydroxybenzotriazole] | modest Kappa number reduction | 26.1 | 
c1ccc2cc3ccccc3cc2c1 [anthracene] |  |  | 25.4
BrC(Br)(Br)Br [CBr4, carbon tetrabromide] |  |  | 24.4

Reference: patent US20030047295A1, “Bio-bleaching of pulp using laccase, mediator, and chain transfer agent” (priority 2001, published 2003)
